The values that follow come from patent publication US20060141047A1, “Methods and compositions for delivery of catecholic butanes for treatment of obesity” (priority 2003, published 2006).

Series [1] is described as follows: Short-term oral feeding, M4N tissue levels by HPLC. The class given is in vivo, mice. How it is done: Tissue Distribution and Toxicity Analysis Following Short-Term and Long-Term Oral Feeding. For short-term feeding experiments, 30 mg of M4N dissolved in 300 μL castor oil was orally administered to each of 6 mice. At 2 h, 4 h, and 8 h post-administration time points, 2 mice were sacrificed, the organs and blood were collected, and the M4N extracted and quantitated as described below. In long-term feeding experiments, mice were fed food balls consisting of M4N dissolved in corn oil and Basal Mix (Harlan Teklad; Madison, Wis.; Cat. # TD 02273) for 14 weeks. Food balls weighed 9 g and contained 242 mg M4N each. Two mice, one male and one female, were reserved for long-term drug retention studies; and fourteen mice, both male and female, were used for long-term drug toxicity studies. At the end of feeding, mice were sacrificed, the organs and blood were collected, and the M4N extracted and quantitated as described below.
M4N Extraction and HPLC Analysis Following Oral Feeding. […] The dried samples were then analyzed quantitatively by HPLC and M4N was identified by mass spectroscopy using pure M4N as a standard.
In samples from short-term fed mice, dialysis was performed to further purify M4N from the tissue extracts. […] The dialysates were dried on benchtop and in a speed-vac, then analyzed by HPLC.
HPLC Quantitation of M4N. […]

For series [2], the system named is HPV-16 transformed immortal mouse epithelial cells (C3). Conditions: intratumor injection, separately or together, U.S. Pat. No. 6,417,234 and 6,214,874; cited from earlier work.

For the compound `COc1ccc(C[C@@H](C)[C@@H](C)Cc2ccc(OC)c(OC)c2)cc1OC` [M4N, meso-1,4-bis(3,4-dimethoxyphenyl)-2,3-dimethylbutane], the “M4N in each tissue” value in series [1] (2 hours post-feeding, 30 mg M4N in castor oil, oral) is listed as less than 2 ng per gram tissue. Besides, the “Time of peak M4N levels” value in series [1] (post-feeding, single oral 30 mg M4N) is “roughly 4 hours”. In series [2], the “Suppression of tumor growth” value is recorded as “some evidence of suppression of tumor growth”.
